Test results published in patent US4877727A, “Substrate for determining leucine aminopeptidase or gamma-glutamyltranspeptase activity” (Kyowa Medex Co., Ltd., priority 1984, dated 1989).

Key:
[1] = Maximum wavelength of formed pigment; format: physicochemical
Procedure: 50 μl of 1 mM each free compound was added to 3 ml of 0.1M phosphate buffer containing 0.5 mg/ml EMSE and 1 U/ml laccase and the mixture was incubated at 37° C. for 5 minutes. The absorption of the reaction solution at λmax was measured. As a control, 5-aminosalicylic acid was used and the reaction of the compound with 2,6-xylenol was carried out in the presence of metaperiodate under strong alkaline conditions.

Stability of pigment = format: physicochemical
Solubility of substrate = format: physicochemical; conditions: read-out: S: Solubility
[2] = biological target: T1, γ-glutamyltranspeptidase (γ-GTP) (Homo sapiens, UniProt P19440); assay: γ-GTP determination in serum (Example 3); format: biochemical; conditions: found with the compound as substrate; standard serum 235 mU/ml; 37° C., 5 minutes; wavelength of Table 2
T1 construct: from tissue; host or cells: serum
T1 sequence (P19440 1-380 limits assumed): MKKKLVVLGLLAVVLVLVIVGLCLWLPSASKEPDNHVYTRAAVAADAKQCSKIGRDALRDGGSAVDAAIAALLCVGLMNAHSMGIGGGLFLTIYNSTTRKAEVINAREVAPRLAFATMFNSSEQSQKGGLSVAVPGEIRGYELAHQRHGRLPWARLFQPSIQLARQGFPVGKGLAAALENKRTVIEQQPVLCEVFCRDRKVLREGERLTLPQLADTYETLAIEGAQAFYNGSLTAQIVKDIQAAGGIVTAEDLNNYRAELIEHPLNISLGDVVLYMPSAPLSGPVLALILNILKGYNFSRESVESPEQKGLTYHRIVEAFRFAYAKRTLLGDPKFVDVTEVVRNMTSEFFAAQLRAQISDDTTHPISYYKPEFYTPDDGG
T1 sequence (P19440 381-569 limits assumed): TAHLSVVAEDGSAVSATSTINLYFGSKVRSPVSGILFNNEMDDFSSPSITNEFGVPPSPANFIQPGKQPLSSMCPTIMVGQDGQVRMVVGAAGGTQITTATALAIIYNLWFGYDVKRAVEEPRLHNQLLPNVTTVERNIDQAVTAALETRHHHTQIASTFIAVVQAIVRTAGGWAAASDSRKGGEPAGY
Procedure: In this example, 500 mg of compound Nos. 1, 3, 5, 7 and 9 each and 500 mg of glycylglycine were dissolved in 100 ml (pH=7.7) and 0.1M phosphate buffer. The resultant solutions were designated A-1, A-3, A-5, A-7 and A-9, respectively. 50 mg of 3-{N-(m-tolyl)-N-ethyl}amino-2-hydroxypropane sulfonic acid was dissolved in 100 ml of phosphate buffer solution to obtain solution B. 50 mg/ml sodium meta-periodate containing 1N-HCl solution was prepared as solution C.
6 ml of solution A-1, A-3, A-5, A-7 or A-9 was equally poured to 3 test tubes. The samples were incubated at 37° C. and to the solution was added […] of (a) serum sample (b) standard serum or (c) water. The mixtures were stirred and heated for 5 minutes. After 5 minutes had passed, 1 ml of solution B and 1 ml of solution C were added to each of the mixtures and the mixtures were incubated for 10 minutes after stirring. As the standard serum, a serum having 235 mU/ml of γ-GTP was used.
The γ-GTP activity of the serum sample can be calculated by the following equation. [formula]

| λmax: Maximum wavelength [1] | ST: Stability of pigment (Stability of pigment) | solubility (Solubility of substrate) | γ-GTP activity of the serum sample [2] | SMILES |
| --- | --- | --- | --- | --- |
| 680 nm | 93% | > 20 mg/mL | 240 mU/ml | N[C@@H](CCC(=O)Nc1ccc(N(CCCS(=O)(=O)O)CCCS(=O)(=O)O)c(S(=O)(=O)O)c1)C(=O)O [compound 7] |
| 745 nm | > 98% | > 200 mg/mL | 231 mU/ml | N[C@@H](CCC(=O)Nc1ccc(N(CCCS(=O)(=O)O)CCCS(=O)(=O)O)cc1)C(=O)O [compound 1] |
